Assay in all cases: cells
Set-up in all cases: species or system NCI-60 human tumour cell lines; NCI-60 one-dose screen at 10 uM, percent growth inhibition versus untreated control cells

Experiment [1] relates to NCI-H322M. The conditions noted are these: Homo sapiens, NCI-H322M; growth inhibition, one dose; read-out: Growth% inhibition / 5h.
For experiment [2], the system named is SF-539. The conditions noted are these: Homo sapiens, SF-539; growth inhibition, one dose; read-out: Growth% inhibition / 5h.
Experiment [3] concerns SK-MEL-2. The following applies: Homo sapiens, SK-MEL-2; growth inhibition, one dose; read-out: Growth% inhibition / 5h.
In experiment [4] the test system is T-47D. The following applies: Homo sapiens, T47D; growth inhibition, one dose; read-out: Growth% inhibition / 5h.
Experiment [5] has as its system SNB-75. The following applies: Homo sapiens, SNB-75; growth inhibition, one dose; read-out: Growth% inhibition / 5h.
In experiment [6] the test system is SNB-19. The following applies: Homo sapiens, SNB-19; growth inhibition, one dose; read-out: Growth% inhibition / 5h.
Experiment [7] deals with MDA-MB-435. The conditions noted are these: Homo sapiens, MDA-MB-435; growth inhibition, one dose; read-out: Growth% inhibition / 5h.
Experiment [8] deals with HCC-2998. The conditions noted are these: Homo sapiens, HCC 2998; growth inhibition, one dose; read-out: Growth% inhibition / 5h.
The subject of experiment [9] is K-562. The following applies: Homo sapiens, K562; growth inhibition, one dose; read-out: Growth% inhibition / 5h.
Experiment [10] has as its system HCT-116. The following applies: Homo sapiens, HCT-116; growth inhibition, one dose; read-out: Growth% inhibition / 5h.
Experiment [11] relates to EKVX. The following applies: Homo sapiens, EKVX; growth inhibition, one dose; read-out: Growth% inhibition / 5h.
In experiment [12] the test system is UO-31. The following applies: Homo sapiens, UO-31; growth inhibition, one dose; read-out: Growth% inhibition / 5h.
Experiment [13] concerns CAKI-1. The conditions noted are these: Homo sapiens, CAKI-1; growth inhibition, one dose; read-out: Growth% inhibition / 5h.
In experiment [14] the test system is OVCAR-5. The conditions noted are these: Homo sapiens, OVCAR-5; growth inhibition, one dose; read-out: Growth% inhibition / 5h.
Experiment [15] deals with M14. The conditions noted are these: Homo sapiens, M14; growth inhibition, one dose; read-out: Growth% inhibition / 5h.
Experiment [16] has as its system MCF7. The conditions noted are these: Homo sapiens, MCF7; growth inhibition, one dose; read-out: Growth% inhibition / 5h.
Experiment [17] has as its system SW-620. The conditions noted are these: Homo sapiens, SW-620; growth inhibition, one dose; read-out: Growth% inhibition / 5h.
For experiment [18], the system named is NCI-H522. The following applies: Homo sapiens, NCI-H522; growth inhibition, one dose; read-out: Growth% inhibition / 5h.

Molecules are shown by their SMILES.

As to `C/C(=N\NC(=O)/C=C/C=C/c1ccc2c(c1)OCO2)c1ccc(Br)cc1` [5h, (2E,4E)-5-(Benzo[d][1,3]dioxol-5-yl)-N′-((E)-1-(4-bromophenyl)ethylidene)penta-2,4-dienehydrazide], the inhibition at 10 µM in experiment [1] turned out to be 36.5%; in [2] it was 12.5%; in experiment [3], 11%; in experiment [4], 65%; in [5], 68.1%; in experiment [6], 14.5%. Further, the inhibition at 10 µM in experiment [7] was found to be 13.6%; in [8], 10.8%; in experiment [9], 40.1%; in experiment [10], 12.3%; in experiment [11], 25%; in [12], 44.9%. For the same compound, the inhibition at 10 µM worked out at 28.1% in experiment [13]; 10.7% in experiment [14]; 26.7% in experiment [15]; 38.7% in [16]; 25.4% in experiment [17]; 19.9% in experiment [18].

These data come from paper PMC9037111, “Structure-based design, synthesis, and biological evaluation of novel piperine–resveratrol hybrids as antiproliferative agents targeting SIRT-2” (RSC Advances, 2021).
